Data from publication PMC8410672 (Chemistry (Weinheim an der Bergstrasse, Germany), 2021).

Tests used:
[1] = system: clinical isolates of methicillin-resistant S. aureus; test: MIC against clinical isolates from cystic fibrosis patients; assay type: cell-based; conditions: n=20 methicillin-resistant clinical isolates; CAMHB
[2] = system: P. aeruginosa (Schroeter) Migula (ATCC 27853); test: P. aeruginosa-induced bacterial peritonitis model; assay type: in vivo, Balb/c mice; conditions: 15 mg/kg i.p. single dose, n=10, 7 days, p <0.001
[3] = system: clinical isolates of P. aeruginosa; test: MIC against clinical isolates from cystic fibrosis patients; assay type: cell-based; conditions: n=20 clinical isolates, CAMHB
[4] = system: Balb/c mice; test: toxicity profile in mice, intraperitoneal; assay type: in vivo, mouse; conditions: Balb/c mice n=3, i.p.; very mild toxicity after 1 h, recovered after 24 h

Molecule	S. aureus MICrange [1]	survival hazard ratio [HR] [2]	P. aeruginosa MIC50 ([3]; 30% MDR)	P. aeruginosa MIC90 [3]	well tolerated intraperitoneal dose (MTD) [4]
CN[C@H](CC(C)C)C(=O)N[C@H]1C(=O)N[C@@H](CC(N)=O)C(=O)N[C@H]2C(=O)N[C@H]3C(=O)N[C@H](C(=O)N[C@H](C(=O)O)c4cc(O)cc(O)c4-c4cc3ccc4O)[C@H](O)c3ccc(c(Cl)c3)Oc3cc2cc(c3O[C@@H]2O[C@H](CO)[C@@H](O)[C@H](O)[C@H]2O[C@H]2C[C@](C)(N)[C@H](O)[C@H](C)O2)Oc2ccc(cc2Cl)[C@H]1O [Vancomycin]	0.5 to 1.4 µM	–	–	–	–
Colistin	–	0.040	≤ 0.2 µM	0.4 µM	15 mg/kg
